Test results from the NIST ThermoML archive (doi:10.1021/acs.jced.7b00572).
± gives the expanded uncertainty stated by the source.

Conditions: Liquid, Vibrating wire viscometry

`O=C(C(F)(F)C(F)(F)F)C(F)(C(F)(F)F)C(F)(F)F` [dodecafluoro-2-methylpentan-3-one] gave a viscosity (243.15 K, 10000 kPa) of 1.923 ± 0.04 mPa·s, a viscosity (243.15 K, 20000 kPa) of 2.329 ± 0.048 mPa·s and a viscosity (243.15 K, 40000 kPa) of 3.247 ± 0.067 mPa·s. For the same molecule, the viscosity (243.16 K, 100 kPa) was 1.597 ± 0.034 mPa·s, the viscosity (243.16 K, 1000 kPa) was 1.628 ± 0.034 mPa·s and the viscosity (243.16 K, 5000 kPa) was 1.749 ± 0.037 mPa·s. The viscosity (243.16 K, 30000 kPa) was 2.761 ± 0.057 mPa·s, the viscosity (253.15 K, 100 kPa) was 1.307 ± 0.027 mPa·s and the viscosity (253.15 K, 1000 kPa) was 1.339 ± 0.029 mPa·s. For the same molecule, the viscosity (253.15 K, 5000 kPa) was 1.451 ± 0.03 mPa·s, the viscosity (253.15 K, 10000 kPa) was 1.58 ± 0.033 mPa·s and the viscosity (253.15 K, 20000 kPa) was 1.913 ± 0.04 mPa·s. It also gave a viscosity (253.15 K, 30000 kPa) of 2.26 ± 0.047 mPa·s, a viscosity (253.16 K, 40000 kPa) of 2.659 ± 0.055 mPa·s and a viscosity (263.14 K, 5000 kPa) of 1.197 ± 0.025 mPa·s. The viscosity (263.14 K, 10000 kPa) was 1.327 ± 0.028 mPa·s, the viscosity (263.14 K, 20000 kPa) was 1.573 ± 0.033 mPa·s and the viscosity (263.14 K, 30000 kPa) was 1.86 ± 0.039 mPa·s. It also gave a viscosity (263.14 K, 40000 kPa) of 2.169 ± 0.045 mPa·s, a viscosity (263.15 K, 100 kPa) of 1.082 ± 0.023 mPa·s and a viscosity (263.15 K, 1000 kPa) of 1.107 ± 0.024 mPa·s. The viscosity (273.14 K, 100 kPa) was 0.9209 ± 0.02 mPa·s, the viscosity (273.14 K, 20000 kPa) was 1.332 ± 0.028 mPa·s and the viscosity (273.15 K, 1000 kPa) was 0.9395 ± 0.02 mPa·s. The viscosity (273.15 K, 5000 kPa) was 1.014 ± 0.022 mPa·s, the viscosity (273.15 K, 10000 kPa) was 1.117 ± 0.024 mPa·s and the viscosity (273.15 K, 30000 kPa) was 1.566 ± 0.033 mPa·s. It also gave a viscosity (273.15 K, 40000 kPa) of 1.818 ± 0.038 mPa·s, a viscosity (283.15 K, 100 kPa) of 0.7823 ± 0.017 mPa·s and a viscosity (283.15 K, 1000 kPa) of 0.7955 ± 0.017 mPa·s. For the same molecule, the viscosity (283.15 K, 5000 kPa) was 0.8641 ± 0.019 mPa·s, the viscosity (283.15 K, 10000 kPa) was 0.9569 ± 0.021 mPa·s and the viscosity (283.15 K, 20000 kPa) was 1.142 ± 0.024 mPa·s. It also gave a viscosity (283.15 K, 30000 kPa) of 1.345 ± 0.028 mPa·s, a viscosity (283.15 K, 40000 kPa) of 1.567 ± 0.033 mPa·s and a viscosity (293.14 K, 10000 kPa) of 0.8262 ± 0.018 mPa·s. For the same molecule, the viscosity (293.15 K, 100 kPa) was 0.6693 ± 0.015 mPa·s, the viscosity (293.15 K, 1000 kPa) was 0.6851 ± 0.015 mPa·s and the viscosity (293.15 K, 5000 kPa) was 0.7466 ± 0.016 mPa·s. It also gave a viscosity (293.15 K, 40000 kPa) of 1.35 ± 0.028 mPa·s, a viscosity (293.16 K, 20000 kPa) of 0.9881 ± 0.021 mPa·s and a viscosity (293.16 K, 30000 kPa) of 1.156 ± 0.025 mPa·s. It also gave a viscosity (303.14 K, 5000 kPa) of 0.6463 ± 0.014 mPa·s, a viscosity (303.15 K, 100 kPa) of 0.5776 ± 0.013 mPa·s and a viscosity (303.15 K, 10000 kPa) of 0.7173 ± 0.016 mPa·s. The viscosity (303.15 K, 20000 kPa) was 0.861 ± 0.018 mPa·s, the viscosity (303.15 K, 40000 kPa) was 1.177 ± 0.025 mPa·s and the viscosity (303.16 K, 1000 kPa) was 0.5906 ± 0.013 mPa·s. It also gave a viscosity (303.16 K, 30000 kPa) of 1.013 ± 0.022 mPa·s, a viscosity (313.13 K, 1000 kPa) of 0.5123 ± 0.012 mPa·s and a viscosity (313.14 K, 5000 kPa) of 0.5621 ± 0.013 mPa·s. For the same molecule, the viscosity (313.14 K, 20000 kPa) was 0.7566 ± 0.017 mPa·s, the viscosity (313.14 K, 30000 kPa) was 0.8908 ± 0.019 mPa·s and the viscosity (313.15 K, 100 kPa) was 0.5006 ± 0.011 mPa·s. It also gave a viscosity (313.15 K, 10000 kPa) of 0.6263 ± 0.014 mPa·s, a viscosity (313.15 K, 40000 kPa) of 1.033 ± 0.022 mPa·s and a viscosity (323.16 K, 1000 kPa) of 0.4465 ± 0.01 mPa·s. The viscosity (323.16 K, 20000 kPa) was 0.668 ± 0.015 mPa·s, the viscosity (323.16 K, 30000 kPa) was 0.7894 ± 0.017 mPa·s and the viscosity (323.16 K, 40100 kPa) was 0.9178 ± 0.02 mPa·s. The viscosity (323.17 K, 5000 kPa) was 0.4933 ± 0.011 mPa·s, the viscosity (323.17 K, 10000 kPa) was 0.5514 ± 0.012 mPa·s and the viscosity (333.16 K, 1000 kPa) was 0.3918 ± 0.0093 mPa·s. The viscosity (333.16 K, 5000 kPa) was 0.4349 ± 0.01 mPa·s, the viscosity (333.16 K, 10000 kPa) was 0.4891 ± 0.011 mPa·s and the viscosity (333.16 K, 20000 kPa) was 0.5966 ± 0.013 mPa·s. The viscosity (333.16 K, 30000 kPa) was 0.7059 ± 0.015 mPa·s, the viscosity (333.16 K, 40000 kPa) was 0.8211 ± 0.018 mPa·s and the viscosity (343.15 K, 5000 kPa) was 0.3849 ± 0.0092 mPa·s. The viscosity (343.15 K, 10000 kPa) was 0.4348 ± 0.01 mPa·s, the viscosity (343.15 K, 20000 kPa) was 0.5345 ± 0.012 mPa·s and the viscosity (343.15 K, 30000 kPa) was 0.6351 ± 0.014 mPa·s. For the same molecule, the viscosity (343.15 K, 40000 kPa) was 0.7373 ± 0.016 mPa·s, the viscosity (343.16 K, 1000 kPa) was 0.342 ± 0.0084 mPa·s and the viscosity (353.15 K, 1000 kPa) was 0.3011 ± 0.0077 mPa·s. For the same molecule, the viscosity (353.15 K, 30000 kPa) was 0.5739 ± 0.013 mPa·s, the viscosity (353.15 K, 40000 kPa) was 0.6681 ± 0.015 mPa·s and the viscosity (353.16 K, 5000 kPa) was 0.3426 ± 0.0084 mPa·s. It also gave a viscosity (353.16 K, 10000 kPa) of 0.3892 ± 0.0093 mPa·s, a viscosity (353.16 K, 20000 kPa) of 0.4822 ± 0.011 mPa·s and a viscosity (363.15 K, 5000 kPa) of 0.3044 ± 0.0077 mPa·s. It also gave a viscosity (363.15 K, 10000 kPa) of 0.3496 ± 0.0085 mPa·s, a viscosity (363.15 K, 20000 kPa) of 0.436 ± 0.01 mPa·s and a viscosity (363.15 K, 30000 kPa) of 0.5213 ± 0.012 mPa·s. The viscosity (363.15 K, 40000 kPa) was 0.608 ± 0.013 mPa·s, the viscosity (373.15 K, 5000 kPa) was 0.2711 ± 0.0071 mPa·s and the viscosity (373.15 K, 10000 kPa) was 0.3155 ± 0.0079 mPa·s. For the same molecule, the viscosity (373.15 K, 20000 kPa) was 0.397 ± 0.0094 mPa·s, the viscosity (373.15 K, 30000 kPa) was 0.4778 ± 0.011 mPa·s and the viscosity (373.15 K, 40000 kPa) was 0.5583 ± 0.013 mPa·s.
